Experimental data: patent US9051581B2, “Defense peptides against fungal infection and method of their use” (The Curators of the University of Missouri, priority 2010, dated 2015)

What was measured:
[1] = test system: P. pachyrhizi urediniospores; assay: In vitro inhibition of urediniospore germ tube growth by phage-display peptide clones (initial assessment, repeated trials); format: cell-based, Phakopsora pachyrhizi; settings: inhibition = 50% or greater germ tube inhibition after 8 h incubation; 10^13 virions ml^−1; field-collected urediniospores
Experimental: Representative, affinity-selected, phage-display peptide clones were initially assessed in vitro for the ability to inhibit urediniospore germ tube growth. Two-hundred fifty phage clones, randomly chosen from the final selection round, were amplified by E. coli infection, twice purified using PEG-precipitation, and re-suspended in sterile deionized water. Phage concentrations were calculated from UV absorbance measurements as virions μl^−1 (2).
A 25-μl water droplet containing ≈300 non-germinated urediniospores collected from soybean leaves in Florida was incubated on a microscope slide in the presence of a phage clone at a concentration equivalent to 10^13 virions ml^−1. […] Urediniospores were visualized using an Olympus Stereo Zoom Microscope (model SZH; Olympus Optical Co., LTD, Tokyo, Japan) at 50× magnification under transmitted light. Images of germinating urediniospores were captured in random microscope fields with a Spot Insight Color digital camera (Diagnostic Instruments, Inc., Sterling Heights, Mich.). Images were manipulated for viewing using Spot imaging software (version 4.0.3) set up with auto exposure to provide contrast of developing germ tubes against a green background. Comparative germination was assessed in three separate experiments. Phage clones that induced greater than 50% reduction in germ tube length (by visual estimation) compared to growth in water were evaluated in seven additional experiments.

[2] = test system: Phakopsora pachyrhizi urediniospores; assay: In vitro inhibition of urediniospore germ tube growth by ZmCKX1-peptides; format: cell-based; settings: ZmCKX1 scaffold-display format
Experimental: Purified ZmCKX1-Sp2 and ZmCKX1-Sp39 peptides were assessed in vitro for the ability to inhibit urediniospore germination. A 25-μl water droplet containing 300 freshly harvested MOS-2008 urediniospores was incubated on a glass slide in the presence of either ZmCKX1-Sp2 or ZmCKX1-Sp39. Control treatments included urediniospores incubated in water or in the presence of ZmCKX1 alone. Germ tube growth was visualized over time and quantified by image capture and analyses as described previously.

[3] = test system: Phakopsora pachyrhizi urediniospores; assay: Effect of phage-display peptide concentration on urediniospore germ tube elongation in vitro; format: cell-based; settings: for effective peptide concentration equivalent at maximal inhibition, phage-display format: five peptide copies per M13 virion at ≈10^13 virions ml^−1
Experimental: The bioactivities of two inhibitory phage-display peptide clones, M13-Sp2 and M13-Sp39, identified in initial assessments were estimated over a range of concentrations including 0.5, 1.0, and 1.5×10^13 virions ml^−1. As before, a 25-μl water droplet containing ≈300 urediniospores was incubated at 22° C. (4) on a microscope slide in the presence of M13-Sp2 or M13-Sp39 at each concentration. Urediniospores in these and all subsequent experiments were derived from the Missouri population, MOS-2008. Control treatments included urediniospores incubated either in water or an equivalent concentration of phage from an unselected library. Spore germination and germ tube growth were visualized over time and quantified by image capture and analyses using MetaMorph software (Version 6.2r6, Universal Imaging, Downington, Pa.). Germ tube length was measured using a line scan function based on conversion of image pixels to length. Germ tube length was averaged from 50 randomly selected germinated urediniospores in each image and across four experimental replicates per treatment.

| Sequence | Frequency of germ tube inhibition over 10 trials [1] | concentration of maximum germ tube inhibition, displayed on ZmCKX1 scaffold [2] [µM] | effective peptide concentration equivalent at maximal inhibition, phage-display format [3] [nM] | concentration of maximal inhibition of germ tube elongation, phage-display format [3] |
| --- | --- | --- | --- | --- |
| STVASLGKPTKI (Random peptide insert) [Sp8, 12-mer phage-display selected peptide] | 4 |  |  |  |
| DRFTSDLRAPDS (Random peptide insert) [Sp61, 12-mer phage-display selected peptide] | 3 |  |  |  |
| YNKPSFQDHSVI (Random peptide insert) [Sp39] | 7 | 115 | 10 | ≈ 10^13 virions ml^−1 |
| DHIRISTSYKSP (Random peptide insert) [Sp51, 12-mer phage-display selected peptide] | 3 |  |  |  |
| TPTRSLDSPHNM (Random peptide insert) [Sp59, 12-mer phage-display selected peptide] | 4 |  |  |  |
| FDPHEPTNTRSP (Random peptide insert) [Sp15, 12-mer phage-display selected peptide] | 6 |  |  |  |
| TFDRHILDTRGS (Random peptide insert) [Sp6, 12-mer phage-display selected peptide] | 3 |  |  |  |
| LTKEPATGRAML (Random peptide insert) [Sp18, 12-mer phage-display selected peptide] | 6 |  |  |  |
| YISPLPNAATIS (Random peptide insert) [Sp5, 12-mer phage-display selected peptide] | 3 |  |  |  |
| MLESHAWPPRAI (Random peptide insert) [Sp2] | 8 | 115 | 10 | ≈ 10^13 virions ml^−1 |
| ASTIGNLMPGHS (Random peptide insert) [Sp14, 12-mer phage-display selected peptide] | 5 |  |  |  |
